Test systems include EKVX NSCLC; HL-60(TB) leukemia; NCI-H226 lung; SN12C renal; HCT-15 colon; KM12 colon; UO-31 renal; PC-3 prostate; HT29 colon; HS 578T breast; SNB-75 CNS; SK-MEL-5 melanoma.
Holding throughout (assay): NCI anticancer screen, dose series, 48 h

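Method: 48-hour compound exposure of cells in 96-well plates, five concentrations, linear interpolation of endpoints. TGI is the concentration that stops growth completely.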 A value given as a limit tells only on which side of the number the result lay.

For `COc1cc(OC)c2nc(C)c(CCCl)c(Cl)c2c1`, the TGI in the experiment on EKVX NSCLC, in the experiment on HL-60(TB) leukemia, in the experiment on NCI-H226 lung, with SN12C renal, with HCT-15 colon and in the experiment on KM12 colon was > 100 µM in each case. Also, the TGI in the experiment with UO-31 renal, with PC-3 prostate, with HT29 colon, with HS 578T breast and in the experiment with SNB-75 CNS was > 100 µM in each case.
`O=[N+]([O-])c1ccc2[nH]c(=S)[nH]c(=S)c2c1`: the TGI in the experiment on EKVX NSCLC, in the experiment with HL-60(TB) leukemia, with NCI-H226 lung, in the experiment on SN12C renal, with HCT-15 colon and in the experiment on KM12 colon was > 100 µM throughout. Besides, the TGI in the experiment with SK-MEL-5 melanoma, with UO-31 renal, in the experiment with PC-3 prostate, in the experiment on HT29 colon, in the experiment with HS 578T breast and in the experiment on SNB-75 CNS was > 100 µM in each case.
With `CC(=O)OC(OC(C)=O)c1ccc2ccc3cccc4ccc1c2c34`, the TGI in the experiment with EKVX NSCLC is 80.6 µM; in the experiment on HL-60(TB) leukemia it was > 100 µM; in the experiment with NCI-H226 lung, 8.43 µM; with SN12C renal it was > 100 µM; with HCT-15 colon, > 100 µM; with KM12 colon, > 100 µM. Moreover, the TGI is 32.8 µM in the experiment on SK-MEL-5 melanoma; 44.6 µM in the experiment on UO-31 renal; 65.6 µM in the experiment on PC-3 prostate; 38.3 µM in the experiment with HT29 colon; 36.8 µM in the experiment on HS 578T breast; 41.6 µM in the experiment with SNB-75 CNS.
Take `CO/N=C(\C(=O)OC(=NC1CCCCC1)NC1CCCCC1)c1csc(NC(c2ccccc2)(c2ccccc2)c2ccccc2)n1`: the TGI in the experiment on EKVX NSCLC, with HL-60(TB) leukemia, in the experiment on NCI-H226 lung, with SN12C renal, with HCT-15 colon and with KM12 colon was > 10 µM in each case. The TGI in the experiment with SK-MEL-5 melanoma, with UO-31 renal, in the experiment with PC-3 prostate, in the experiment with HT29 colon, in the experiment with HS 578T breast and in the experiment with SNB-75 CNS was > 10 µM each time.
For `COC(=O)/C=C(\C(=O)OC)C1C(=O)Oc2c(C)c(=O)c3ccccc3n21` (centres undefined), the TGI in the experiment on EKVX NSCLC, in the experiment on HL-60(TB) leukemia, in the experiment with NCI-H226 lung, in the experiment with SN12C renal, in the experiment on HCT-15 colon and in the experiment on KM12 colon was > 100 µM in each case. For the same compound, the TGI in the experiment on SK-MEL-5 melanoma, in the experiment with PC-3 prostate, in the experiment on HT29 colon, in the experiment on HS 578T breast and with SNB-75 CNS was > 100 µM each time.
On to `C=CCn1c(N)c(C#N)c(C#N)c1-c1ccccc1`, for which the TGI with EKVX NSCLC, in the experiment with HL-60(TB) leukemia, in the experiment on NCI-H226 lung, with SN12C renal, with HCT-15 colon and in the experiment with KM12 colon was > 100 µM in each case. Also, the TGI in the experiment with SK-MEL-5 melanoma, in the experiment on UO-31 renal, in the experiment on PC-3 prostate, in the experiment with HT29 colon, in the experiment on HS 578T breast and with SNB-75 CNS was > 100 µM in each case.
For `N#Cc1n[nH]n(-c2ccc(Br)cc2)c1=O`, the TGI in the experiment with EKVX NSCLC, in the experiment with HL-60(TB) leukemia, with NCI-H226 lung, in the experiment on SN12C renal, with HCT-15 colon and in the experiment with KM12 colon was > 100 µM each time. Further, the TGI in the experiment with UO-31 renal, in the experiment on PC-3 prostate, with HT29 colon, in the experiment with HS 578T breast and in the experiment on SNB-75 CNS was > 100 µM throughout.
For `CCn1c(-c2ccccc2)cs/c1=N\C(P(=O)(O)O)P(=O)(O)O`, the TGI in the experiment with EKVX NSCLC, in the experiment with HL-60(TB) leukemia, in the experiment on NCI-H226 lung, in the experiment with HCT-15 colon, in the experiment with KM12 colon and in the experiment on SK-MEL-5 melanoma was > 100 µM each time. The TGI in the experiment on UO-31 renal, in the experiment on PC-3 prostate, in the experiment on HT29 colon, in the experiment on HS 578T breast and in the experiment on SNB-75 CNS was > 100 µM throughout.
For the compound `O=C1Nc2cccc(Cl)c2/C1=C\c1c(Cl)nc2n1CCS2`, the TGI in the experiment on EKVX NSCLC, with HL-60(TB) leukemia, in the experiment on SN12C renal, with HCT-15 colon, in the experiment on KM12 colon and in the experiment on SK-MEL-5 melanoma was > 100 µM each time. In addition, the TGI in the experiment with UO-31 renal, in the experiment with PC-3 prostate, with HT29 colon, in the experiment with HS 578T breast and in the experiment with SNB-75 CNS was > 100 µM in each case.
Regarding `CCOC(=O)CCC(NC(=O)Cc1ccc(Nc2nc3cc(F)c(F)cc3nc2C(=O)OCC)cc1)C(=O)OCC` (centres undefined), the TGI in the experiment with EKVX NSCLC was > 100 µM; in the experiment with HL-60(TB) leukemia it was 50 µM; with NCI-H226 lung it was > 100 µM; in the experiment on SN12C renal it was > 100 µM; with HCT-15 colon, > 100 µM; in the experiment with KM12 colon, > 100 µM. The TGI with SK-MEL-5 melanoma was > 100 µM; in the experiment on UO-31 renal it was > 100 µM; in the experiment on PC-3 prostate, > 100 µM; in the experiment with HT29 colon, > 100 µM; in the experiment with HS 578T breast it was > 100 µM; in the experiment with SNB-75 CNS it was 77.2 µM.
Consider `CCOC1(OCC)C2C=CC1C(COS(=O)(=O)c1ccc(C)cc1)C2COS(=O)(=O)c1ccc(C)cc1` (centres undefined), for which the TGI is > 100 µM in the experiment with EKVX NSCLC; 42.4 µM with HL-60(TB) leukemia; 91.1 µM with NCI-H226 lung; > 100 µM in the experiment with SN12C renal; > 100 µM with HCT-15 colon; > 100 µM in the experiment with KM12 colon. Besides, the TGI in the experiment with SK-MEL-5 melanoma is 31 µM; with UO-31 renal it was > 100 µM; with PC-3 prostate, 74.6 µM; in the experiment on HT29 colon it was > 100 µM; in the experiment on HS 578T breast, > 100 µM; in the experiment on SNB-75 CNS, > 100 µM.
For the compound `O=S(=O)(O)CCCc1cccc2ccccc12`, the TGI with EKVX NSCLC, in the experiment with HL-60(TB) leukemia, with NCI-H226 lung, in the experiment with SN12C renal, in the experiment with HCT-15 colon and in the experiment on KM12 colon was > 100 µM each time. The TGI in the experiment on SK-MEL-5 melanoma, with UO-31 renal, with PC-3 prostate, in the experiment with HT29 colon, with HS 578T breast and in the experiment with SNB-75 CNS was > 100 µM each time.

The record behind these values is PubChem BioAssay (NCI).
